In article PMC10194981, “Chemosensory protein regulates the behavioural response of Frankliniella intonsa and Frankliniella occidentalis to tomato zonate spot virus–Infected pepper (Capsicum annuum)” (PLOS Pathogens, 2023):
“Also recorded” adds a separate entry of the source.

Legend:
F. intonsa antennae = test: Electroantennogram (EAG) assay; design: species or system Frankliniella intonsa; settings: excised F. intonsa antennae
Method: The FintCSP1, FintCSP2, FintOBP, FintOR, FoccCSP, and enhanced green fluorescent protein (EGFP) coding sequences were obtained from GenBank under accession numbers MT199111, MT211602, OK067245, MT211603, AEP27186.1, and U55761.1, respectively. Primers were designed using Primer Premier 5.0, and the T7 promoter sequence (5′-[…]-3′) was added to the 5′ end of each primer (S1 Table). DNA fragments containing T7 promoter sequences were amplified by PCR using pEASY-T1/target gene or pUC-EGFP (preserved in the laboratory) plasmid DNA as template. Then, a double-stranded RNA (dsRNA) was produced from each target gene using the HiScribe T7 Quick High Yield RNA Synthesis Kit (New England Biolabs) according to the manufacturer’s instructions. Six hundred 2-day-old female F. intonsa or two hundred 2-day-old female F. occidentalis adults were anesthetized using CO2 and microinjected with 40 nL (3 μg/μL) dsRNA (dsFintCSP1 dsFintCSP2, dsFintOBP, dsFintOR or dsFoccCSP or dsEGFP) using a CellTram Oil microinjector (Eppendorf, Hamburg, Germany). The injected thrips were kept on broad beans in an artificial climate incubator as described above and used in subsequent RNAi experiments. Three biological replicates were conducted for each treatment with each dsRNA.
At 24 h after dsRNA injection, the electrophysiological responses of F. intonsa antennae to six volatile components (i.e., m-cymene, cis-3-hexenal, (+)-2-carene, trans-2-hexenal, α-phellandrene, and α-humulene) or F. occidentalis antennae to cis-3-hexenal were recorded using EAG. Antennae of female adult thrips were cut off at the base, and the distal terminus was carefully removed. The tested compounds were dissolved in liquid paraffin, with pure liquid paraffin used as a negative control. An Ag-AgCl2 glass electrode and Kaissling electrode solution were used in the experiment according to Tian et al.. The base of the antenna was inserted into the glass capillary filled with electrode solution at the end of the reference electrode; the top of the antenna was connected to the glass capillary at the end of the recording electrode to ensure no bubbles in the glass capillary. After successful connection, the antennae were stimulated with each chemical in the following order: liquid paraffin, volatile compounds, and liquid paraffin. Stimulus time was 0.2 s with each stimulus at 40 s intervals. At least 10 antennae were tested for each volatile compound. The EAG values to volatile compounds were calculated using the following equation: absolute value of EAG reaction = reaction value of the tested sample—average value of two control measurements.

F. intonsa = test: Y-tube olfactometer preference test; assay type: in vivo, Frankliniella intonsa; settings: volatile compound vs liquid paraffin control; n = 60
Method: F. intonsa and F. occidentalis preference tests of plant volatile cues were performed using a glass Y-tube olfactometer according to the method described by Wang et al. (2014) with minor modifications. A Y-shaped tube (1-cm inner diameter) consisted of a central tube (10 cm in length) and two arms (10 cm in length, offset by 60°) connected to two different glass odor bottles. One glass odor bottle was 50 cm in height, with a 10-cm inner diameter that contained pepper plants (14-day post-viral infection); the other glass odor bottle was 5 cm in height, with a 3-cm inner diameter for plant VOCs. The airflow in the olfactometer (200 mL/min) was filtered through activated carbon and calibrated using a flow meter at the end of each arm. To remove all visual cues, the Y-tube was positioned horizontally in a black airtight cubic box (90 cm × 60 cm × 40 cm). The tested odor sources (pepper plant VOCs) were enclosed in the odor bottles 5 min prior to each test to allow the odors to fill the arms. Thrips (2-day-old, starved for 1 h) were individually placed in the central tube and allowed to choose between the two arms. When the thrips had climbed over 2/3 of the side arm and stayed there for more than 30 s, it was considered to have made a selection. If the thrips had not made a choice after being placed in the straight arm for 5 min, the insect behaviour was scored as “no selection,” and it was not counted in the total data. The direction of the Y-tube arms and the silicone tubes were adjusted after five tested thrips to eliminate the influence of position. The Y-tube was replaced after 10 tested thrips to eliminate the possible influence of existing odors on thrips behaviour. Each treatment consisted of 20 thrips, with three replicates per treatment.
The FintCSP1, FintCSP2, FintOBP, FintOR, FoccCSP, and enhanced green fluorescent protein (EGFP) coding sequences were obtained from GenBank under accession numbers MT199111, MT211602, OK067245, MT211603, AEP27186.1, and U55761.1, respectively. Primers were designed using Primer Premier 5.0, and the T7 promoter sequence (5′-[…]-3′) was added to the 5′ end of each primer (S1 Table). DNA fragments containing T7 promoter sequences were amplified by PCR using pEASY-T1/target gene or pUC-EGFP (preserved in the laboratory) plasmid DNA as template. Then, a double-stranded RNA (dsRNA) was produced from each target gene using the HiScribe T7 Quick High Yield RNA Synthesis Kit (New England Biolabs) according to the manufacturer’s instructions. […]

FintCSP1-Phe27Ala = FintCSP1-Phe27Ala (Frankliniella intonsa, UniProt A0A891LVF4, F27A); test: Fluorescence (1-NPN) binding and competitive binding assay, FintCSP1 mutant
Method: (§1) The binding affinity of FintCSP1 and FoccCSP to the fluorescent probe N-phenyl-1-naphthylamine (1-NPN) was tested using a Spectramax M2 fluorescence spectrometer (Molecular Devices, USA) as reported previously. […] The 1-NPN/FintCSP1 or 1-NPN/FoccCSP mixture was excited at 280 nm, and the emission spectra were recorded at 415 nm. The binding constants (Kd) of FintCSP1 or FoccCSP to 1-NPN were calculated by Scatchard analysis using Prism 5 software (GraphPad, La Jolla, CA, USA). Assuming a protein activity of 100% and that the volatile compound binds to the protein in a 1:1 ratio at saturation, the dissociation constants (Ki) of FintCSP1 or FoccCSP for each ligand were calculated according to the IC50 (the concentration when the ligand replaces 50% of the probe) value of the volatile compounds. The Ki values were calculated according to the following equation: Ki = [IC50]/(1 + [1-NPN]/K1-NPN), where [1-NPN] is the free concentration of 1-NPN, and K1-NPN is the Kd of the 1-NPN/FintCSP1 or 1-NPN/FoccCSP.
(§2) To verify the key amino acids of FintCSP1 and FoccCSP that bind to cis-3-hexenal, six amino acid residues of FintCSP1 were mutated (Lys26Ala, Phe27Ala, Thr28Ala, Glu67Ala, Ser84Ala, and the negative control residue Val132Ala) and nine amino acid residues of FoccCSP were mutated (Lys26Ala, Phe27Ala, Thr28Ala, Thr29Ala, Tyr31Ala, Asp64Ala, Glu67Ala, Gln87Ala, and the negative control residue Val132Ala) with the Fast Mutagenesis System Kit (Transgen Biotech, Beijing, China) using the pET-30a/FintCSP1 and pET-30a/FoccCSP plasmid DNA as template, respectively. Specific primers were designed using Primer Premier 5.0 according to the instructions of the Fast Mutagenesis System Kit (S1 Table). After validation by sequencing, each recombinant variant protein was produced and purified as described above, and their binding affinity to cis-3-hexenal was measured as described above.

FintCSP1-Lys26Ala = FintCSP1-Lys26Ala (Frankliniella intonsa, UniProt A0A891LVF4, K26A); test: as above
Method: as §1, §2

FintCSP1-Thr28Ala = FintCSP1-Thr28Ala (Frankliniella intonsa, UniProt A0A891LVF4, T28A); test: as above
Method: as §1, §2

FintCSP1-Glu67Ala = FintCSP1-Glu67Ala (Frankliniella intonsa, UniProt A0A891LVF4, E67A); test: as above
Method: as §1, §2

FintCSP1-Ser84Ala = FintCSP1-Ser84Ala (Frankliniella intonsa, UniProt A0A891LVF4, S84A); test: as above
Method: (§3) The binding affinity of FintCSP1 and FoccCSP to the fluorescent probe N-phenyl-1-naphthylamine (1-NPN) was tested using a Spectramax M2 fluorescence spectrometer (Molecular Devices, USA) as reported previously. Volatile compounds and 1-NPN were first dissolved to a concentration of 1 mM in HPLC-grade methanol and dissolved to their indicated final concentration (2–20 μM) to titrate 2 μM protein solutions resuspended in 50 mM Tris-HCl (pH 7.4). The 1-NPN/FintCSP1 or 1-NPN/FoccCSP mixture was excited at 280 nm, and the emission spectra were recorded at 415 nm. The binding constants (Kd) of FintCSP1 or FoccCSP to 1-NPN were calculated by Scatchard analysis using Prism 5 software (GraphPad, La Jolla, CA, USA). Assuming a protein activity of 100% and that the volatile compound binds to the protein in a 1:1 ratio at saturation, the dissociation constants (Ki) of FintCSP1 or FoccCSP for each ligand were calculated according to the IC50 (the concentration when the ligand replaces 50% of the probe) value of the volatile compounds. The Ki values were calculated according to the following equation: Ki = [IC50]/(1 + [1-NPN]/K1-NPN), where [1-NPN] is the free concentration of 1-NPN, and K1-NPN is the Kd of the 1-NPN/FintCSP1 or 1-NPN/FoccCSP.
as §2, with “Specific primers were designed using Primer Premier 5.0 according to the instructions of the Fast Mutagenesis System Kit (S1 Table).” left out

[1] = target: recombinant wild-type FintCSP1 (Frankliniella intonsa, UniProt A0A891LVF4); test: Fluorescence (1-NPN) binding and competitive binding assay, wild-type FintCSP1
Method: (§4) FintCSP1 and FoccCSP DNA were released from pEASY-T1/FintCSP1 and pEASY-T1/FoccCSP, respectively, by restriction digestion with BamHI and XhoI and cloned into the pET-30a vector (Invitrogen). The resulting construct was transformed into Transetta (DE3) Escherichia coli competent cells (Transgen). The production of recombinant FintCSP1 and FoccCSP was induced by addition of isopropyl-β-D-1-thiogalactopyranoside (IPTG, 0.2 mM) at 15°C and purified by Ni ion affinity chromatography (Sangon Biotech, Shanghai, China). The target protein was verified by 15% SDS-PAGE, and its concentration was determined with a BCA protein assay kit (Thermo Scientific, Rockford, IL, USA). The recombinant purified protein was stored at −20°C until use.
as §1

FoccCSP-Phe27Ala = FoccCSP-Phe27Ala (Frankliniella occidentalis, UniProt G4Y3X1, F27A); test: Fluorescence (1-NPN) binding and competitive binding assay, FoccCSP mutant
Method: as §1, §2

FoccCSP-Thr29Ala = FoccCSP-Thr29Ala (Frankliniella occidentalis, UniProt G4Y3X1, T29A); test: as above
Method: as §1, §2

FoccCSP-Asp64Ala = FoccCSP-Asp64Ala (Frankliniella occidentalis, UniProt G4Y3X1, D64A); test: as above
Method: as §1, §2

FoccCSP-Thr28Ala = FoccCSP-Thr28Ala (Frankliniella occidentalis, UniProt G4Y3X1, T28A); test: as above
Method: as §1, §2

FoccCSP-Glu67Ala = FoccCSP-Glu67Ala (Frankliniella occidentalis, UniProt G4Y3X1, E67A); test: as above
Method: as §1, §2

FoccCSP-Tyr31Ala = FoccCSP-Tyr31Ala (Frankliniella occidentalis, UniProt G4Y3X1, Y31A); test: as above
Method: as §3, §2

FoccCSP-Gln87Ala = FoccCSP-Gln87Ala (Frankliniella occidentalis, UniProt G4Y3X1, Q87A); test: as above
Method: as §3, §2

FoccCSP-Lys26Ala = FoccCSP-Lys26Ala (Frankliniella occidentalis, UniProt G4Y3X1, K26A); test: as above
Method: as §3, §2

FintCSP1-Val132Ala = FintCSP1-Val132Ala (Frankliniella intonsa, UniProt A0A891LVF4, V132A); test: Fluorescence (1-NPN) binding and competitive binding assay, FintCSP1 mutant (negative control residue)
Method: as §3
as §2, with “Specific primers were designed using Primer Premier 5.0 according to the instructions of the Fast Mutagenesis System Kit (S1 Table).” left out

FoccCSP-Val132Ala = FoccCSP-Val132Ala (Frankliniella occidentalis, UniProt G4Y3X1, V132A); test: Fluorescence (1-NPN) binding and competitive binding assay, FoccCSP mutant (negative control residue)
Method: as §3, §2

[2] = target: recombinant wild-type FoccCSP (Frankliniella occidentalis, UniProt G4Y3X1); test: Fluorescence (1-NPN) binding and competitive binding assay, wild-type FoccCSP
Method: as §4, §3

recombinant wild-type FintCSP1, sequence (A0A891LVF4 entry or part of it): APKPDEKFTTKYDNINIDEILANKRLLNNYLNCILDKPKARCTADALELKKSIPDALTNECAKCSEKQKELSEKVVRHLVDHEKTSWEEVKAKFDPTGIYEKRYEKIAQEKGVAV
FintCSP1-Val132Ala, sequence (A0A891LVF4 entry or part of it V132A): as the sequence (A0A891LVF4 entry or part of it) above, with V113A counted along it
FoccCSP-Gln87Ala, sequence (G4Y3X1 entry or part of it Q87A): as the sequence (A0A891LVF4 entry or part of it) above, with D5E, I15V, A44N, A62M, Q68A, V80A, D81E, H82K, T85E, Q109K counted along it
FoccCSP-Thr29Ala, sequence (G4Y3X1 entry or part of it T29A): as the sequence (A0A891LVF4 entry or part of it) above, with D5E, T10A, I15V, A44N, A62M, V80A, D81E, H82K, T85E, Q109K counted along it
FintCSP1-Ser84Ala, sequence (A0A891LVF4 entry or part of it S84A): as the sequence (A0A891LVF4 entry or part of it) above, with S65A counted along it
FintCSP1-Thr28Ala, sequence (A0A891LVF4 entry or part of it T28A): as the sequence (A0A891LVF4 entry or part of it) above, with T9A counted along it
FoccCSP-Val132Ala, sequence (G4Y3X1 entry or part of it V132A): as the sequence (A0A891LVF4 entry or part of it) above, with D5E, I15V, A44N, A62M, V80A, D81E, H82K, T85E, Q109K, V113A counted along it
FoccCSP-Glu67Ala, sequence (G4Y3X1 entry or part of it E67A): as the sequence (A0A891LVF4 entry or part of it) above, with D5E, I15V, A44N, E48A, A62M, V80A, D81E, H82K, T85E, Q109K counted along it
FoccCSP-Phe27Ala, sequence (G4Y3X1 entry or part of it F27A): as the sequence (A0A891LVF4 entry or part of it) above, with D5E, F8A, I15V, A44N, A62M, V80A, D81E, H82K, T85E, Q109K counted along it
FintCSP1-Glu67Ala, sequence (A0A891LVF4 entry or part of it E67A): as the sequence (A0A891LVF4 entry or part of it) above, with E48A counted along it
FoccCSP-Tyr31Ala, sequence (G4Y3X1 entry or part of it Y31A): as the sequence (A0A891LVF4 entry or part of it) above, with D5E, Y12A, I15V, A44N, A62M, V80A, D81E, H82K, T85E, Q109K counted along it
FoccCSP-Lys26Ala, sequence (G4Y3X1 entry or part of it K26A): as the sequence (A0A891LVF4 entry or part of it) above, with D5E, K7A, I15V, A44N, A62M, V80A, D81E, H82K, T85E, Q109K counted along it
FintCSP1-Phe27Ala, sequence (A0A891LVF4 entry or part of it F27A): as the sequence (A0A891LVF4 entry or part of it) above, with F8A counted along it
recombinant wild-type FoccCSP, sequence (G4Y3X1 entry or part of it): as the sequence (A0A891LVF4 entry or part of it) above, with D5E, I15V, A44N, A62M, V80A, D81E, H82K, T85E, Q109K counted along it
FoccCSP-Asp64Ala, sequence (G4Y3X1 entry or part of it D64A): as the sequence (A0A891LVF4 entry or part of it) above, with D5E, I15V, A44N, D45A, A62M, V80A, D81E, H82K, T85E, Q109K counted along it
FoccCSP-Thr28Ala, sequence (G4Y3X1 entry or part of it T28A): as the sequence (A0A891LVF4 entry or part of it) above, with D5E, T9A, I15V, A44N, A62M, V80A, D81E, H82K, T85E, Q109K counted along it
FintCSP1-Lys26Ala, sequence (A0A891LVF4 entry or part of it K26A): as the sequence (A0A891LVF4 entry or part of it) above, with K7A counted along it

C/C1=C\CC/C(C)=C/CC(C)(C)/C=C/C1 [α-humulene]
EAG peak amplitude (F. intonsa antennae; 1 mg/L in liquid paraffin): –0.024 mV

Cc1cccc(C(C)C)c1 [m-cymene]
EAG peak amplitude (F. intonsa antennae; 10 mg/L in liquid paraffin): approximately –0.034 mV | preference of F. intonsa in Y-tube olfactometer (in words) (F. intonsa): appeared to repel F. intonsa, but this result was not statistically significant

CC1=CC2C(CC1)C2(C)C (single isomer, unassigned; (+)) [(+)-2-carene]
EAG peak amplitude (F. intonsa antennae; 1 mg/L in liquid paraffin): –0.016 mV

CC1=CC[C@H](C(C)C)C=C1 (racemic) [α-phellandrene]
EAG peak amplitude (F. intonsa antennae; 10 mg/L in liquid paraffin): –0.018 mV

c1ccc(Nc2cccc3ccccc23)cc1 [1-NPN, N-phenyl-1-naphthylamine, reference compound]
Kd (FintCSP1-Phe27Ala): 4.38 ± 0.49 µM | Kd (FintCSP1-Lys26Ala): 3.3 ± 0.39 µM | Kd (FintCSP1-Thr28Ala): 3.85 ± 0.41 µM | Kd (FintCSP1-Glu67Ala): 4.5 ± 0.61 µM | Kd (FintCSP1-Ser84Ala): 3.48 ± 0.33 µM | Kd [1]: 6.07 ± 0.4 µM | Kd (FoccCSP-Phe27Ala): 7.09 ± 0.39 µM | Kd (FoccCSP-Thr29Ala): 15.5 ± 1.74 µM | Kd (FoccCSP-Asp64Ala): 31 ± 4.55 µM | Kd (FoccCSP-Thr28Ala): 19.9 ± 2.43 µM | Kd (FoccCSP-Glu67Ala): 15.7 ± 2.3 µM | Kd (FoccCSP-Tyr31Ala): 9.79 ± 0.87 µM | Kd (FoccCSP-Gln87Ala): 20.3 ± 2.25 µM | Kd (FoccCSP-Lys26Ala): 17.4 ± 1.32 µM | Kd (FintCSP1-Val132Ala): 6.77 ± 0.36 µM | Kd (FoccCSP-Val132Ala): 7.26 ± 0.66 µM | Kd [2]: 6.36 ± 0.51 µM

CCC/C=C/C=O [trans-2-hexenal]
IC50 [1]: > 100 µM | Ki [1]: > 100 µM | binding affinity to FintCSP1 (in words) ([1]; wild-type FintCSP1, competitive fluorescence binding assay, classes of Ki): no FintCSP1 binding; also recorded: could not bind | EAG peak amplitude (F. intonsa antennae; 1 mg/L in liquid paraffin): –0.024 mV
